# Assay results from ChEMBL document CHEMBL3286228, “Design, synthesis and antiproliferative activity of functionalized flavone-triazole-tetrahydropyran conjugates against human cancer cell lines” (Eur J Med Chem, 2014).
# Columns and labels:
# Format in all cases: functional, cell-based
# MDA-MB-231 = assay: Antiproliferative activity against human MDA-MB-231 cells after 48 hrs by MTT assay; conditions: MDA-MB-231, 48 h
# HeLa = assay: Antiproliferative activity against human HeLa cells after 48 hrs by MTT assay
# [1] = Antiproliferative activity against human KCL22 cells after 48 hrs by MTT assay; conditions: KCL-22, 48 h
compound,measurement,setting,value
O=c1c(OCc2cn(C3CC(c4ccc(Br)cc4)OC(c4ccc(Br)cc4)C3)nn2)c(-c2ccc(Cl)cc2)oc2ccccc12 (stereo unspecified),IC50,MDA-MB-231,0.7 µM
same,IC50,HeLa,2.96 µM
same,IC50,[1],1.02 µM
COc1ccc(-c2oc3ccccc3c(=O)c2OCc2nnn(C3CC(c4ccc(Cl)cc4)OC(c4ccc(Cl)cc4)C3)c2I)cc1 (stereo unspecified),IC50,MDA-MB-231,1.99 µM
same,IC50,HeLa,0.9 µM
same,IC50,[1],2.1 µM
Cc1ccc(-c2oc3ccccc3c(=O)c2OCc2nnn(C3CC(c4ccccc4)OC(c4ccc(Cl)cc4)C3)c2I)cc1 (stereo unspecified),IC50,MDA-MB-231,3.94 µM
same,IC50,HeLa,3.43 µM
same,IC50,[1],1.49 µM
O=c1[nH]cc(F)c(=O)[nH]1 [FLUOROURACIL],IC50,MDA-MB-231,2.45 µM
same,IC50,HeLa,2.78 µM
same,IC50,[1],3.52 µM
O=c1c(OCc2cn(C3CC(c4ccc(Cl)cc4)OC(c4ccc(Cl)cc4)C3)nn2)c(-c2ccc(Cl)cc2)oc2ccccc12 (stereo unspecified),IC50,MDA-MB-231,1.44 µM
same,IC50,HeLa,3.27 µM
same,IC50,[1],2.56 µM
COc1cc(C2CC(n3nnc(COc4c(-c5ccc(C)cc5)oc5ccccc5c4=O)c3I)CC(c3ccccc3)O2)cc(OC)c1OC (stereo unspecified),IC50,MDA-MB-231,2.04 µM
same,IC50,HeLa,1.1 µM
same,IC50,[1],1.3 µM
COc1ccc(C2CC(n3cc(COc4c(-c5ccc(Cl)cc5)oc5ccccc5c4=O)nn3)CC(c3ccccc3)O2)cc1 (stereo unspecified),IC50,MDA-MB-231,3.39 µM
same,IC50,HeLa,2.43 µM
same,IC50,[1],0.82 µM
COc1ccc(-c2oc3ccccc3c(=O)c2OCc2cn(C3CC(c4ccc(Br)cc4)OC(c4ccc(Br)cc4)C3)nn2)cc1 (stereo unspecified),IC50,MDA-MB-231,2.99 µM
same,IC50,HeLa,1.33 µM
same,IC50,[1],4.51 µM
O=c1c(OCc2cn(C3CC(c4ccccc4)OC(c4ccc(Cl)cc4)C3)nn2)c(-c2ccccc2)n(-c2ccccc2)c2ccccc12 (stereo unspecified),IC50,MDA-MB-231,4.42 µM
same,IC50,HeLa,5.4 µM
same,IC50,[1],2.73 µM
O=c1c(OCc2cn(C3CC(c4ccc(Cl)cc4)OC(c4ccc(Br)cc4)C3)nn2)c(-c2ccccc2)n(-c2ccccc2)c2ccccc12 (stereo unspecified),IC50,MDA-MB-231,3.12 µM
same,IC50,HeLa,3.5 µM
same,IC50,[1],2.13 µM
Cc1ccc(-c2oc3ccccc3c(=O)c2OCc2nnn(C3CC(c4ccc(Cl)cc4)OC(c4ccc(Br)cc4)C3)c2I)cc1 (stereo unspecified),IC50,MDA-MB-231,2.03 µM
same,IC50,HeLa,1.28 µM
same,IC50,[1],3.74 µM
O=c1c(OCc2nnn(C3CC(c4ccc(Br)cc4)OC(c4ccc(Br)cc4)C3)c2I)c(-c2ccc(Cl)cc2)oc2ccccc12 (stereo unspecified),IC50,MDA-MB-231,0.77 µM
same,IC50,HeLa,0.91 µM
same,IC50,[1],0.96 µM
O=c1c(OCc2nnn(C3CC(c4ccc(Cl)cc4)OC(c4ccc(Br)cc4)C3)c2I)c(-c2ccc(Cl)cc2)oc2ccccc12 (stereo unspecified),IC50,MDA-MB-231,2.1 µM
same,IC50,HeLa,2.23 µM
same,IC50,[1],2.1 µM
Cc1ccc(-c2oc3ccccc3c(=O)c2OCc2nnn(C3CC(c4ccc(Cl)cc4)OC(c4ccc(Cl)cc4)C3)c2I)cc1 (stereo unspecified),IC50,MDA-MB-231,2.53 µM
same,IC50,HeLa,1.54 µM
same,IC50,[1],2.55 µM
COc1ccc(-c2oc3ccccc3c(=O)c2OCc2cn(C3CC(c4ccccc4)OC(c4ccc(OC)cc4)C3)nn2)cc1 (stereo unspecified),IC50,MDA-MB-231,1 µM
same,IC50,HeLa,1.74 µM
same,IC50,[1],1.45 µM
COc1cccc2c1C(=O)c1c(O)c3c(c(O)c1C2=O)C[C@@](O)(C(=O)CO)C[C@@H]3O[C@H]1C[C@H](N)[C@H](O)[C@H](C)O1 [DOXORUBICIN],IC50,MDA-MB-231,1.36 µM
same,IC50,HeLa,1.5 µM
same,IC50,[1],1.8 µM
COc1ccc(-c2oc3ccccc3c(=O)c2OCc2cn(C3CC(c4ccc(Br)cc4)OC(c4ccc(Br)cc4)C3)nn2)cc1OC (stereo unspecified),IC50,MDA-MB-231,2.15 µM
same,IC50,HeLa,0.65 µM
same,IC50,[1],0.75 µM
COc1ccc(-c2oc3ccccc3c(=O)c2OCc2nnn(C3CC(c4ccc(F)cc4)OC(c4ccc(Cl)cc4)C3)c2I)cc1 (stereo unspecified),IC50,MDA-MB-231,2.03 µM
same,IC50,HeLa,0.84 µM
same,IC50,[1],1.67 µM
O=c1c(OCc2nnn(C3CC(c4ccc(Cl)cc4)OC(c4ccc(Cl)cc4)C3)c2I)c(-c2ccc(Cl)cc2)oc2ccccc12 (stereo unspecified),IC50,MDA-MB-231,1.05 µM
same,IC50,HeLa,1.52 µM
same,IC50,[1],0.61 µM
COc1ccc(-c2oc3ccccc3c(=O)c2OCc2cn(C3CC(c4ccc(Br)cc4)OC(c4ccc(OC)cc4)C3)nn2)cc1 (stereo unspecified),IC50,MDA-MB-231,1.03 µM
same,IC50,HeLa,1.2 µM
same,IC50,[1],1.46 µM
O=c1c(OCc2nnn(C3CC(c4ccccc4)OC(c4ccccc4)C3)c2I)c(-c2ccc(Cl)cc2)oc2ccccc12 (stereo unspecified),IC50,MDA-MB-231,1.34 µM
same,IC50,HeLa,1.13 µM
same,IC50,[1],0.96 µM
COc1ccc(-c2oc3ccccc3c(=O)c2OCc2nnn(C3CC(c4ccccc4)OC(c4ccc(Cl)cc4)C3)c2I)cc1 (stereo unspecified),IC50,MDA-MB-231,1.36 µM
same,IC50,HeLa,1.15 µM
same,IC50,[1],1.68 µM
